Data reported in publication PMC7544826 (Communications Biology, 2020).
Entries after “also recorded” stand apart in the source; their conditions may differ.

Key:
Notum [1] = biological target: T1, Notum (Homo sapiens, UniProt Q6P988, C330S); test: SPR equilibrium binding to biotinylated Notum on streptavidin chip; parameters: The human Notum enzyme core comprising amino acids S81–T451 with a C330S mutation; made in house; dialyzed conditioned medium used without purification; conditions: result in words
T1 sequence (Q6P988 81-451 C330S): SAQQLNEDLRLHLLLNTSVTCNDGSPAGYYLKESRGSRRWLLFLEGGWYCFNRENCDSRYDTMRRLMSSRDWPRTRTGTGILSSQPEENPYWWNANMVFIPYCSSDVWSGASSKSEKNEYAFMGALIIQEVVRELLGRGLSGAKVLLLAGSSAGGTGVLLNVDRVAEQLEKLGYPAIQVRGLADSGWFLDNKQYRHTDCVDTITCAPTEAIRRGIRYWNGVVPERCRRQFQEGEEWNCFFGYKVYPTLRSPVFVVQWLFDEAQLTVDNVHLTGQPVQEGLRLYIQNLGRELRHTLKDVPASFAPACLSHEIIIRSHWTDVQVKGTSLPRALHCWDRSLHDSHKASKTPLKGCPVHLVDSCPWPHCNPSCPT
Procedure: The human Notum core sequence was cloned in a pHL-Avi3 vector[49] and co-transfected with the pDisplay_BirA-ER plasmid[50] into HEK293T cells with the media supplemented with 20 µM biotin. This procedure allows in vivo biotinylation to occur, and the dialyzed conditioned medium was directly used for SA sensor chip immobilization without protein purification. […] Approximately 2500 resonance units (RU) of the biotinylated Notum was coupled onto the chip. […] The response was plotted versus the concentration of the analytes and fitted by nonlinear regression to a one-site saturation binding model (GraphPad Prism 8).

Notum [2] = biological target: T1, Notum; test: Thermal shift assay (SYPRO Orange) of Notum; conditions: compound 500 µM; for Thermoflour melting curve fluorescence of Notum: Fig 2c
Procedure: Reference wells, i.e. solutions without compounds were used to compare the melting temperature (Tm). The experiments were performed in triplicate.

Notum [3] = biological target: T1, Notum; test: Notum activity assay with OPTS as substrate; type: biochemical; parameters: The human Notum enzyme core comprising amino acids S81–T451 with a C330S mutation; made in house; dialyzed conditioned medium used without purification; conditions: result in words
Procedure: OPTS is a common lipase substrate with an octanoyl lipid linked to a fluorescent moiety. It is not a natural Notum substrate; however, it can be used to quantify the enzymatic activity of purified Notum protein[23],[25],[28]. […] The fluorescent lipase substrate OPTS was dissolved in water at a concentration of 20 µM. […] The inhibition curves were fitted with a one-site model with GraphPad Prism 8 software.

Substance: 1,5-dimethylxanthine [theobromine]
- Binding to Notum (SPR response) (Notum [1]): did not observe significant responses; also recorded: do not bind Notum
- Thermoflour melting curve fluorescence of Notum (Notum [2]; Temperature 24.5): 1404.51
- Thermoflour melting curve fluorescence of Notum (Notum [2]; Temperature 25.5): 1219.92
- Thermoflour melting curve fluorescence of Notum (Notum [2]; Temperature 26.5): 1040.89
- Thermoflour melting curve fluorescence of Notum (Notum [2]; Temperature 27.5): 912.702
- Thermoflour melting curve fluorescence of Notum (Notum [2]; Temperature 28.5): 812.506
- Thermoflour melting curve fluorescence of Notum (Notum [2]; Temperature 29.5): 748.934
- Thermoflour melting curve fluorescence of Notum (Notum [2]; Temperature 30.5): 702.942
- Thermoflour melting curve fluorescence of Notum (Notum [2]; Temperature 31.5): 648.106
- Thermoflour melting curve fluorescence of Notum (Notum [2]; Temperature 32.5): 580.173
- Thermoflour melting curve fluorescence of Notum (Notum [2]; Temperature 33.5): 507.838
- Thermoflour melting curve fluorescence of Notum (Notum [2]; Temperature 34.5): 418.887
- Thermoflour melting curve fluorescence of Notum (Notum [2]; Temperature 35.5): 274.731
- Thermoflour melting curve fluorescence of Notum (Notum [2]; Temperature 36.5): 90.4697
- Thermoflour melting curve fluorescence of Notum (Notum [2]; Temperature 37.5): -139.16
- Thermoflour melting curve fluorescence of Notum (Notum [2]; Temperature 38.5): -392.32
- Thermoflour melting curve fluorescence of Notum (Notum [2]; Temperature 39.5): -608.25
- Thermoflour melting curve fluorescence of Notum (Notum [2]; Temperature 40.5): -782.991
- Thermoflour melting curve fluorescence of Notum (Notum [2]; Temperature 41.5): -908.263
- Thermoflour melting curve fluorescence of Notum (Notum [2]; Temperature 42.5): -987.266
- Thermoflour melting curve fluorescence of Notum (Notum [2]; Temperature 43.5): -1014
- Thermoflour melting curve fluorescence of Notum (Notum [2]; Temperature 44.5): -973.707
- Thermoflour melting curve fluorescence of Notum (Notum [2]; Temperature 45.5): -878.635
- Thermoflour melting curve fluorescence of Notum (Notum [2]; Temperature 46.5): -736.376
- Thermoflour melting curve fluorescence of Notum (Notum [2]; Temperature 47.5): -559.758
- Thermoflour melting curve fluorescence of Notum (Notum [2]; Temperature 48.5): -346.91
- Thermoflour melting curve fluorescence of Notum (Notum [2]; Temperature 49.5): -78.207
- Thermoflour melting curve fluorescence of Notum (Notum [2]; Temperature 50.5): 248.299
- Thermoflour melting curve fluorescence of Notum (Notum [2]; Temperature 51.5): 600.666
- Thermoflour melting curve fluorescence of Notum (Notum [2]; Temperature 52.5): 986.098
- Thermoflour melting curve fluorescence of Notum (Notum [2]; Temperature 53.5): 1440.99
- Thermoflour melting curve fluorescence of Notum (Notum [2]; Temperature 54.5): 1961.08
- Thermoflour melting curve fluorescence of Notum (Notum [2]; Temperature 55.5): 2560.53
- Thermoflour melting curve fluorescence of Notum (Notum [2]; Temperature 56.5): 3253.14
- Thermoflour melting curve fluorescence of Notum (Notum [2]; Temperature 57.5): 4045.69
- Thermoflour melting curve fluorescence of Notum (Notum [2]; Temperature 58.5): 5053.15
- Thermoflour melting curve fluorescence of Notum (Notum [2]; Temperature 59.5): 6367.38
- Thermoflour melting curve fluorescence of Notum (Notum [2]; Temperature 60.5): 8116.48
- Thermoflour melting curve fluorescence of Notum (Notum [2]; Temperature 61.5): 10309.5
- Thermoflour melting curve fluorescence of Notum (Notum [2]; Temperature 62.5): 12803.5
- Thermoflour melting curve fluorescence of Notum (Notum [2]; Temperature 63.5): 15345.7
- Thermoflour melting curve fluorescence of Notum (Notum [2]; Temperature 64.5): 17689.5
- Thermoflour melting curve fluorescence of Notum (Notum [2]; Temperature 65.5): 19737.1
- Thermoflour melting curve fluorescence of Notum (Notum [2]; Temperature 66.5): 21432.6
- Thermoflour melting curve fluorescence of Notum (Notum [2]; Temperature 67.5): 22887.7
- Thermoflour melting curve fluorescence of Notum (Notum [2]; Temperature 68.5): 24216
- Thermoflour melting curve fluorescence of Notum (Notum [2]; Temperature 69.5): 25446.3
- Thermoflour melting curve fluorescence of Notum (Notum [2]; Temperature 70.5): 26564.8
- Thermoflour melting curve fluorescence of Notum (Notum [2]; Temperature 71.5): 27592.2
- Thermoflour melting curve fluorescence of Notum (Notum [2]; Temperature 72.5): 28538.2
- Thermoflour melting curve fluorescence of Notum (Notum [2]; Temperature 73.5): 29406
- Thermoflour melting curve fluorescence of Notum (Notum [2]; Temperature 74.5): 30226.8
- Thermoflour melting curve fluorescence of Notum (Notum [2]; Temperature 75.5): 30994.2
- Thermoflour melting curve fluorescence of Notum (Notum [2]; Temperature 76.5): 31712.3
- Thermoflour melting curve fluorescence of Notum (Notum [2]; Temperature 77.5): 32380.8
- Thermoflour melting curve fluorescence of Notum (Notum [2]; Temperature 78.5): 33030.5
- Thermoflour melting curve fluorescence of Notum (Notum [2]; Temperature 79.5): 33697.5
- Thermoflour melting curve fluorescence of Notum (Notum [2]; Temperature 80.5): 34352.1
- Thermoflour melting curve fluorescence of Notum (Notum [2]; Temperature 81.5): 34969.9
- Thermoflour melting curve fluorescence of Notum (Notum [2]; Temperature 82.5): 35562.2
- Thermoflour melting curve fluorescence of Notum (Notum [2]; Temperature 83.5): 36162.5
- Thermoflour melting curve fluorescence of Notum (Notum [2]; Temperature 84.5): 36803.8
- Thermoflour melting curve fluorescence of Notum (Notum [2]; Temperature 85.5): 37475.6
- Thermoflour melting curve fluorescence of Notum (Notum [2]; Temperature 86.5): 38149.2
- Thermoflour melting curve fluorescence of Notum (Notum [2]; Temperature 87.5): 38788.7
- Thermoflour melting curve fluorescence of Notum (Notum [2]; Temperature 88.5): 39302.1
- Thermoflour melting curve fluorescence of Notum (Notum [2]; Temperature 89.5): 39800.1
- Thermoflour melting curve fluorescence of Notum (Notum [2]; Temperature 90.5): 40397.5
- Thermoflour melting curve fluorescence of Notum (Notum [2]; Temperature 91.5): 41008.7
- Thermoflour melting curve fluorescence of Notum (Notum [2]; Temperature 92.5): 41535.5
- Thermoflour melting curve fluorescence of Notum (Notum [2]; Temperature 93.5): 42071.6
- Thermoflour melting curve fluorescence of Notum (Notum [2]; Temperature 94.5): 42644
- Thermoflour melting curve fluorescence of Notum (Notum [2]; Temperature 95.5): 43225
- Thermoflour melting curve fluorescence of Notum (Notum [2]; Temperature 96.5): 43850.3
- Thermoflour melting curve fluorescence of Notum (Notum [2]; Temperature 97.5): 44460.4
- Effect on Tm of Notum (Notum [2]): little effect on the Tm
- Melting temperature (Tm) of Notum (Notum [2]; Notum without compounds Tm 63.6 °C): 63.4 °C
- Notum inhibitory effect in OPTS enzyme assay (Notum [3]): could not detect obvious Notum inhibitory effects
